Assays:
Assay in all cases: KINOMEscan competition binding
Details in all cases: compound 10.0 µM
[1] = tested on: ABL1 (human), P00519 [F317I]
[2] = tested on: ABL1 (human), P00519 [H396P]
[3] = tested on: ABL1 (human), P00519 [T315I]
ADCK3 (human) = ADCK3 (human) (UniProt Q8NI60)
AURKA (human) = AURKA (human) (UniProt O14965)
BTK (human) = BTK (human) (UniProt Q06187)
CAMK4 (human) = CAMK4 (human) (UniProt Q16566)
CDC2L2 (human) = CDC2L2 (human) (UniProt Q9UQ88)
CDK15 (human) = CDK15 (human) (UniProt Q96Q40)
CDK9 (human) = CDK9 (human) (UniProt P50750)
CHEK1 (human) = CHEK1 (human) (UniProt O14757)
DCLK2 (human) = DCLK2 (human) (UniProt Q8N568)
EPHA2 (human) = EPHA2 (human) (UniProt P29317)
EPHA4 (human) = EPHA4 (human) (UniProt P54764)
GSK3B (human) = GSK3B (human) (UniProt P49841)
IRAK3 (human) = IRAK3 (human) (UniProt Q9Y616)
[4] = target: JAK2 JH1 catalytic (human) (UniProt O60674)
LIMK2 (human) = LIMK2 (human) (UniProt P53671)
MAP2K1 (human) = MAP2K1 (human) (UniProt Q02750)
MAP2K6 (human) = MAP2K6 (human) (UniProt P52564)
MAP3K11 (human) = MAP3K11 (human) (UniProt Q16584)
MAPK11 (human) = MAPK11 (human) (UniProt Q15759)
MAPK14 (human) = MAPK14 (human) (UniProt Q16539)
MST4 (human) = MST4 (human) (UniProt Q9P289)
NEK9 (human) = NEK9 (human) (UniProt Q8TD19)
PDGFRA (human) = PDGFRA (human) (UniProt P16234)
PDPK1 (human) = PDPK1 (human) (UniProt O15530)
PIK3CA (human) = PIK3CA (human) (UniProt P42336)
PKN2 (human) = PKN2 (human) (UniProt Q16513)
PRKCQ (human) = PRKCQ (human) (UniProt Q04759)
PRKD2 (human) = PRKD2 (human) (UniProt Q9BZL6)
RET (human) = RET (human) (UniProt P07949)
[5] = tested on: RET (human), P07949 [M918T]
RPS6KA5 KD1 (human) = RPS6KA5 KD1 (human) (UniProt O75582)
SLK (human) = SLK (human) (UniProt Q9H2G2)
STK3 (human) = STK3 (human) (UniProt Q13188)
STK32B (human) = STK32B (human) (UniProt Q9NY57)
STK32C (human) = STK32C (human) (UniProt Q86UX6)
SYK (human) = SYK (human) (UniProt P43405)
TEC (human) = TEC (human) (UniProt P42680)
TEK (human) = TEK (human) (UniProt Q02763)
TXK (human) = TXK (human) (UniProt P42681)

CDK9 (human), sequence (P50750 whole entry, looked up): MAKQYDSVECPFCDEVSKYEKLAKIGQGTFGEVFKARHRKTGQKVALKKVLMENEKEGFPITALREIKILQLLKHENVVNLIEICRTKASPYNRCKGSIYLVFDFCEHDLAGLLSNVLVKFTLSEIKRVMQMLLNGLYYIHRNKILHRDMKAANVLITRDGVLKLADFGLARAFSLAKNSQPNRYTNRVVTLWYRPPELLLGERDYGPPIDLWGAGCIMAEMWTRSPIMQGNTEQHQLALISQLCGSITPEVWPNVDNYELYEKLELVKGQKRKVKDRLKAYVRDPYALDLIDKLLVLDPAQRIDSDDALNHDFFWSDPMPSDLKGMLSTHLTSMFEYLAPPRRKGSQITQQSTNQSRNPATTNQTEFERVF
EPHA2 (human), sequence (P29317 whole entry, looked up): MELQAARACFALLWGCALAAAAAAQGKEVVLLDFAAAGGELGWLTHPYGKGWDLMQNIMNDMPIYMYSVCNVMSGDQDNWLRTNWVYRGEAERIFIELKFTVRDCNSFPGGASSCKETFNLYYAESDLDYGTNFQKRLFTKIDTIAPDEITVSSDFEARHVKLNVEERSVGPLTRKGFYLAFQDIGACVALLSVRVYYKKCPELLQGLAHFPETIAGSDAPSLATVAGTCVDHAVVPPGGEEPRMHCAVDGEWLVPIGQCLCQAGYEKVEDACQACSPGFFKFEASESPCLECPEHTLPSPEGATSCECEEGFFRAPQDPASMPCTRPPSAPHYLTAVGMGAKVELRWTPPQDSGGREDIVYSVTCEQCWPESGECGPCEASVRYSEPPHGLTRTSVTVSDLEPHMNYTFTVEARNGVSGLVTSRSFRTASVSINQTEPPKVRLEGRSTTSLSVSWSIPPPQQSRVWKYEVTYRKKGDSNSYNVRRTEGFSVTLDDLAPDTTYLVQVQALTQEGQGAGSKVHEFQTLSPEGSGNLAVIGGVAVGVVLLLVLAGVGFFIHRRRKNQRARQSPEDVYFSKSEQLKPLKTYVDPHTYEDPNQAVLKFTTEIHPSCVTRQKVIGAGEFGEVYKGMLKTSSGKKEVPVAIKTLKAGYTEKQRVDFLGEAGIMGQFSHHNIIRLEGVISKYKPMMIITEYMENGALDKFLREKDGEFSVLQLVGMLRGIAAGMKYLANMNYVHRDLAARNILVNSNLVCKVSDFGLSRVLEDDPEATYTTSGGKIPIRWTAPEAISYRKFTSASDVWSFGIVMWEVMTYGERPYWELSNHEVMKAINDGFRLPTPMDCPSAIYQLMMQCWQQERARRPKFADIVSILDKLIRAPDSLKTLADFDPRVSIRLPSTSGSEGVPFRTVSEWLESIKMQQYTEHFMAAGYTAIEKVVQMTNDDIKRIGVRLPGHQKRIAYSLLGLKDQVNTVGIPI
PKN2 (human), sequence (Q16513 whole entry, looked up): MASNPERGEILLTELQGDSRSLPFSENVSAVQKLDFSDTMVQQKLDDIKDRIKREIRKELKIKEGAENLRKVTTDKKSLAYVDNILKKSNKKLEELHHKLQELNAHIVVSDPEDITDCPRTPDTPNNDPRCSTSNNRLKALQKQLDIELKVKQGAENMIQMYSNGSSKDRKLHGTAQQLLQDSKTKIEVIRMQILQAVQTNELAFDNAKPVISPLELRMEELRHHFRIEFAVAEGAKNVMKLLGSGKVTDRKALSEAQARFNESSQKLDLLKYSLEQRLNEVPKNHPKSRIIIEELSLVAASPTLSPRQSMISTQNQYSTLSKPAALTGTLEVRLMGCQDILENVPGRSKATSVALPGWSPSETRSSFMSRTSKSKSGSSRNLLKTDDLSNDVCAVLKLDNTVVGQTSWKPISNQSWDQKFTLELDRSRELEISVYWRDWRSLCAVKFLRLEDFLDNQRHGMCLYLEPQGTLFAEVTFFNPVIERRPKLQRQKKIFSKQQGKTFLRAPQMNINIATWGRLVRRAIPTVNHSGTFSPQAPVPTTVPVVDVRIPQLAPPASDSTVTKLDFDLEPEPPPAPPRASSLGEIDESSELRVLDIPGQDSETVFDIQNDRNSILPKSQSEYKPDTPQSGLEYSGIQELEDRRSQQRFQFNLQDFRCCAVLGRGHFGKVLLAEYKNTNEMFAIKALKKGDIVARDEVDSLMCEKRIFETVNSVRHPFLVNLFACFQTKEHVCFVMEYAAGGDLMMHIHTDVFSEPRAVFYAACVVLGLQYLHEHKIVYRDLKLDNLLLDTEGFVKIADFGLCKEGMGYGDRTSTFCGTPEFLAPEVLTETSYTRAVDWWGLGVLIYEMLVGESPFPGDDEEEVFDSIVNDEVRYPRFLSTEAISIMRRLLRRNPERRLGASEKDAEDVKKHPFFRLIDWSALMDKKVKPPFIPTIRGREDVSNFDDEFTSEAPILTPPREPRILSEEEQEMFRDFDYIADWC
PIK3CA (human), sequence (P42336 whole entry, looked up): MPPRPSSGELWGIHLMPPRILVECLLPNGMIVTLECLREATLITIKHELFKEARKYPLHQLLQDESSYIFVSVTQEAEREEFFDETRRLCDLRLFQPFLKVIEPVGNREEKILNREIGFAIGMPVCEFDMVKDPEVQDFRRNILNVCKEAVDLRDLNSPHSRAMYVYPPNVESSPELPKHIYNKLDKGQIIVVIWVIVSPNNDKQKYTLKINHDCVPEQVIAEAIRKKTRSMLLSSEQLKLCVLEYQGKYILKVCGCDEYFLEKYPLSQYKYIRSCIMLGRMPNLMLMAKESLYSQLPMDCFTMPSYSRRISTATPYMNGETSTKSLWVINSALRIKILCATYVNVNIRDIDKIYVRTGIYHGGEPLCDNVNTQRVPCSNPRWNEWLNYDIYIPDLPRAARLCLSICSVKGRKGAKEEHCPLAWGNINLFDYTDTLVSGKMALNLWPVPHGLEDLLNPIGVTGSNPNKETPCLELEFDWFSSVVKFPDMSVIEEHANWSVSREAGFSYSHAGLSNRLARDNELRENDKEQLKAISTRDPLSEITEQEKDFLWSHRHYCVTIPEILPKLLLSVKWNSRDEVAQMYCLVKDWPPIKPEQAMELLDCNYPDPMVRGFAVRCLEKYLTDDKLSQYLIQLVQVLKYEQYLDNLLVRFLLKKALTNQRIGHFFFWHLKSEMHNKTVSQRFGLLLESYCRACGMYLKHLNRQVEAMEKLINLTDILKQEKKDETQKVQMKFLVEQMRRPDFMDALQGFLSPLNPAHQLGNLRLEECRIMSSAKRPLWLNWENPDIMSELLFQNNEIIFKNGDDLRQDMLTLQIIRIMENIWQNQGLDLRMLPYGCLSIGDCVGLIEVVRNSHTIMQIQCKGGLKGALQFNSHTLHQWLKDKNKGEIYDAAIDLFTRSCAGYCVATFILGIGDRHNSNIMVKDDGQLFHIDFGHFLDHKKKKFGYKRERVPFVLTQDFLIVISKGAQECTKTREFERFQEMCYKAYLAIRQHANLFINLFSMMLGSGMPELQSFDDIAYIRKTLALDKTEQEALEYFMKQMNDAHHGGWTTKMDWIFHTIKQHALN
MAPK11 (human), sequence (Q15759 whole entry, looked up): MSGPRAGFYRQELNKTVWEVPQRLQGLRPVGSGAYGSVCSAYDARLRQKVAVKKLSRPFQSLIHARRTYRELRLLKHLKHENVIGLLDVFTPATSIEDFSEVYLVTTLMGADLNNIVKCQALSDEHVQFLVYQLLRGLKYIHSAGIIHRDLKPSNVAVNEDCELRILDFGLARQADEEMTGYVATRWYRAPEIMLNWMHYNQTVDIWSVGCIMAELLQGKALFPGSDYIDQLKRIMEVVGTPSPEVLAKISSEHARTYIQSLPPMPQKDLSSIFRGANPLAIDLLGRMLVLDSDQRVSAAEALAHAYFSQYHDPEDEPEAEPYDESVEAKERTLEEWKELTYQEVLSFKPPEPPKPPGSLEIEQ
RET (human), sequence (P07949 whole entry, looked up): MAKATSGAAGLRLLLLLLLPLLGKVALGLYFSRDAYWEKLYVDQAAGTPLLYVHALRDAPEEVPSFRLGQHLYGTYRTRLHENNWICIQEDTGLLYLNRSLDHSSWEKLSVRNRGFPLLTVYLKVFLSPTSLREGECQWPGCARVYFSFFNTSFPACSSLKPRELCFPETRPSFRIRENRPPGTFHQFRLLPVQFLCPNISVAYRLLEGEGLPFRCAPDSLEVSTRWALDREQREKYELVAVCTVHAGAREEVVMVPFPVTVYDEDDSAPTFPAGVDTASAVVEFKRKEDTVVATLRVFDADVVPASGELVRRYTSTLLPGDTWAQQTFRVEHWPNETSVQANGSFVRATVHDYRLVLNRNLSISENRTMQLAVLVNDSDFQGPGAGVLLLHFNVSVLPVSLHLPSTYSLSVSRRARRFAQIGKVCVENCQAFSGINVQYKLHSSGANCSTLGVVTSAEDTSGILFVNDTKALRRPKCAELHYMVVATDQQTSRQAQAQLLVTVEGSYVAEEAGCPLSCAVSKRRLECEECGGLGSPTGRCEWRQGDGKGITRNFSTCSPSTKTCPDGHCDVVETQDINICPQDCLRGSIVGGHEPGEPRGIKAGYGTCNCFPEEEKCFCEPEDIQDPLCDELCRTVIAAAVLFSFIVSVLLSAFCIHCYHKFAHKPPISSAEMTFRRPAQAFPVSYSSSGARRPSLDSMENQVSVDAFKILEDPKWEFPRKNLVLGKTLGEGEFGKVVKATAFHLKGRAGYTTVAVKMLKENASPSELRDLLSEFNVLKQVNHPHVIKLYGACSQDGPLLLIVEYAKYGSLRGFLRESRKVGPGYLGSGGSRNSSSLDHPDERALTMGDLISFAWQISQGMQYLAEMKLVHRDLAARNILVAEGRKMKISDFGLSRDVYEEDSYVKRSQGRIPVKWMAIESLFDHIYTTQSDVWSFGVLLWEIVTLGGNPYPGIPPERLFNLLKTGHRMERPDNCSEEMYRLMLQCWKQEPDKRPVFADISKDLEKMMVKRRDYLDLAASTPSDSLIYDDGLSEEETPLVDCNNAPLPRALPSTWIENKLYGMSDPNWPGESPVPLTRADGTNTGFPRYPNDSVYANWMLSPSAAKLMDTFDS
RET (human), P07949 [M918T], sequence (P07949 whole entry M918T, looked up): as the sequence (P07949 whole entry, looked up) above, with M918T counted along it

In the case of `COc1cc(N2CCN(C)CC2)ccc1Nc1ncc2c(n1)Nc1ccccc1NC2=O`, the kinase still bound, per cent of control [1] is reported as 65%, the kinase still bound, per cent of control [2] is reported as 21% and the kinase still bound, per cent of control [3] is reported as 46%. The kinase still bound, per cent of control (ADCK3 (human)) was 100%, the kinase still bound, per cent of control (AURKA (human)) was 78% and the kinase still bound, per cent of control (BTK (human)) was 23%. It also gave a kinase still bound, per cent of control (CAMK4 (human)) of 100%, a kinase still bound, per cent of control (CDC2L2 (human)) of 100% and a kinase still bound, per cent of control (CDK15 (human)) of 58%. It also gave a kinase still bound, per cent of control (CDK9 (human)) of 100%, a kinase still bound, per cent of control (CHEK1 (human)) of 75% and a kinase still bound, per cent of control (DCLK2 (human)) of 89%. It also gave a kinase still bound, per cent of control (EPHA2 (human)) of 100%, a kinase still bound, per cent of control (EPHA4 (human)) of 100% and a kinase still bound, per cent of control (GSK3B (human)) of 53%. The kinase still bound, per cent of control (IRAK3 (human)) was 79%, the kinase still bound, per cent of control [4] was 85% and the kinase still bound, per cent of control (LIMK2 (human)) was 100%. The kinase still bound, per cent of control (MAP2K1 (human)) was 71%, the kinase still bound, per cent of control (MAP2K6 (human)) was 97% and the kinase still bound, per cent of control (MAP3K11 (human)) was 88%. The kinase still bound, per cent of control (MAPK11 (human)) was 100%, the kinase still bound, per cent of control (MAPK14 (human)) was 100% and the kinase still bound, per cent of control (MST4 (human)) was 67%. The kinase still bound, per cent of control (NEK9 (human)) was 87%, the kinase still bound, per cent of control (PDGFRA (human)) was 91% and the kinase still bound, per cent of control (PDPK1 (human)) was 82%. The kinase still bound, per cent of control (PIK3CA (human)) was 100%, the kinase still bound, per cent of control (PKN2 (human)) was 100% and the kinase still bound, per cent of control (PRKCQ (human)) was 59%. For the same compound, the kinase still bound, per cent of control (PRKD2 (human)) was 100%, the kinase still bound, per cent of control (RET (human)) was 95% and the kinase still bound, per cent of control [5] was 72%. It also gave a kinase still bound, per cent of control (RPS6KA5 KD1 (human)) of 90%, a kinase still bound, per cent of control (SLK (human)) of 100% and a kinase still bound, per cent of control (STK3 (human)) of 100%. The kinase still bound, per cent of control (STK32B (human)) was 93%, the kinase still bound, per cent of control (STK32C (human)) was 100% and the kinase still bound, per cent of control (SYK (human)) was 91%. For the same compound, the kinase still bound, per cent of control (TEC (human)) was 87%, the kinase still bound, per cent of control (TEK (human)) was 100% and the kinase still bound, per cent of control (TXK (human)) was 80%.

`COc1cc(N2CCN(C)CC2)ccc1Nc1ncc2c(n1)N(C)c1sccc1C(=O)N2C` was tested, and the kinase still bound, per cent of control [1] was 6.6%, the kinase still bound, per cent of control [2] was 82% and the kinase still bound, per cent of control [3] was 66%. The kinase still bound, per cent of control (ADCK3 (human)) was 100%, the kinase still bound, per cent of control (AURKA (human)) was 75% and the kinase still bound, per cent of control (BTK (human)) was 82%. The kinase still bound, per cent of control (CAMK4 (human)) was 80%, the kinase still bound, per cent of control (CDC2L2 (human)) was 100% and the kinase still bound, per cent of control (CDK15 (human)) was 92%. For the same compound, the kinase still bound, per cent of control (CDK9 (human)) was 76%, the kinase still bound, per cent of control (CHEK1 (human)) was 60% and the kinase still bound, per cent of control (DCLK2 (human)) was 1%. The kinase still bound, per cent of control (EPHA2 (human)) was 100%, the kinase still bound, per cent of control (EPHA4 (human)) was 100% and the kinase still bound, per cent of control (GSK3B (human)) was 97%. The kinase still bound, per cent of control (IRAK3 (human)) was 77%, the kinase still bound, per cent of control [4] was 34% and the kinase still bound, per cent of control (LIMK2 (human)) was 83%. For the same compound, the kinase still bound, per cent of control (MAP2K1 (human)) was 90%, the kinase still bound, per cent of control (MAP2K6 (human)) was 100% and the kinase still bound, per cent of control (MAP3K11 (human)) was 100%. For the same compound, the kinase still bound, per cent of control (MAPK11 (human)) was 85%, the kinase still bound, per cent of control (MAPK14 (human)) was 82% and the kinase still bound, per cent of control (MST4 (human)) was 70%. The kinase still bound, per cent of control (NEK9 (human)) was 94%, the kinase still bound, per cent of control (PDGFRA (human)) was 87% and the kinase still bound, per cent of control (PDPK1 (human)) was 93%. The kinase still bound, per cent of control (PIK3CA (human)) was 97%, the kinase still bound, per cent of control (PKN2 (human)) was 90% and the kinase still bound, per cent of control (PRKCQ (human)) was 92%. For the same compound, the kinase still bound, per cent of control (PRKD2 (human)) was 9.2%, the kinase still bound, per cent of control (RET (human)) was 85% and the kinase still bound, per cent of control [5] was 96%. For the same compound, the kinase still bound, per cent of control (RPS6KA5 KD1 (human)) was 86%, the kinase still bound, per cent of control (SLK (human)) was 87% and the kinase still bound, per cent of control (STK3 (human)) was 69%. It also gave a kinase still bound, per cent of control (STK32B (human)) of 100%, a kinase still bound, per cent of control (STK32C (human)) of 99% and a kinase still bound, per cent of control (SYK (human)) of 100%. It also gave a kinase still bound, per cent of control (TEC (human)) of 91%, a kinase still bound, per cent of control (TEK (human)) of 88% and a kinase still bound, per cent of control (TXK (human)) of 72%.

From the kinase profiling compilation of Christmann-Franck et al. (2016)
